Source: US3984470A, “Amidoxime derivatives and process for preparing the same” (priority 1974, dated 1976)

Tests used:
reserpine-induced ptosis = experiment: Reserpine-induced ptosis in the rat; assay type: in vivo, male rats of the CF1 strain; conditions: reserpine 5 mg/kg i.p., score scale 0-4, mean to 6th hour vs controls
Description: (§2) The thymoanaleptic properties of the compounds of the invention were determined by means of reserpine-induced ptosis and hypothermia in the rat.
An intraperitoneal dose of 5 mg/kg of reserpine was administered to batches of 5 male rats of the CF1 strain weighing an average of 300 g.
Thirty minutes later a dose of the compound to be studied was given by oral route and the inhibitory effect of the reserpine was noted every hour up to the sixth hour. Ptosis was evaluated for each eye in accordance with the following scale:
4 : eyelids completely closed.
The difference between these two averages represents the average decrease of the ptosis in the treated animals as compared to the controls.

neuromuscular functions = experiment: Rotarod test of BOISSIER / neuromuscular functions; assay type: in vivo, mouse; conditions: up to 40 mg/kg oral, for 3 hours after administration
[1] = Toxicity, method of KARBER and BEHRENS, rats; conditions: rat, in vivo, rats, after 48 hours
Description: (§1) Finally, tests of toxicity were performed with compounds of the invention following the method of KARBER and BEHRENS.

[2] = test system: aggressivity of killer rats; experiment: Aggressivity of killer rats; assay type: in vivo, male rats; conditions: for inhibition in vivo at 20 mg/kg: 20 mg/kg i.p.; for inhibition in vivo at 25 mg/kg: 25 mg/kg i.p.; for antiaggressive properties: conclusion from Table V
Source text: If, under certain conditions, male rats are kept alone in individual cages for several weeks, the become spontaneously aggressive towards any mouse, which they kill as soon as it is placed in the same cage. Mice were introduced one after another into cages containing an isolated rat and a selection was made of the rats which immediately killed three mice. In this way batches of 6 to 8 rats were constituted. The rats were then given the compound to be studied by intraperitoneal route in such a way that each batch received a higher dose than the preceding batch. […] Table V which follows contains the results obtained 30 minutes after administration of the compound to be studied.

[3] = test system: stereotypies induced by amphetamine; experiment: Potentiation of the stereotypies induced by amphetamine; assay type: in vivo, rats
Description: It is commonly admitted that amphetamine induces stereotypies by stimulating the dopaminergic receptors and inhibiting the re-uptake of dopamine into the neuron.
The thymoanaleptics potentiate these stereotypies.
Thirty minutes later, a dose of 10 mg/kg of the compound to be tested was given by oral route. Note was taken of the intensity of the stereotypies every 30 minutes for 150 minutes in accordance with the following scale which indicates the behaviour of the animal.
0 : the rat is motionless and asleep
1 : the rat is motionless and awake
3 : the rat stands on its hind paws and sniffs the lid of its cage in a stereotyped manner.
4 : the rat licks the walls of its cage in a stereotyped manner
5 : the rat bites the bars of its cage or sniffs the shavings of its litter in a stereotyped manner
6 : the rat chews the shavings in a stereotyped manner
The average of the 5 results obtained for each batch was calculated and compared with the average obtained with the control animals.
The difference between these averages represents the mean increase of the steroetypies of the treated animals in comparison with the controls.

[4] = Toxicity, method of KARBER and BEHRENS, mice; conditions: mouse, in vivo, mice, after 48 hours
Description: as §1

toxicity of yohimbine = experiment: Potentiation of the toxicity of yohimbine (test of QUINTON); assay type: in vivo, male mice; conditions: yohimbine hydrochloride 25 mg/kg i.p.; for mortality at 50 mg/kg: Mus musculus, 50 mg/kg oral, mortality after 24 hours
Description: Yohimbine is a substance which provokes an increase in the serotonine level in the brain or a decrease in norepinephrine according to the author.
For this purpose, the test of QUINTON was used which is described in Brit. J. Pharmacol. 21, 51 (1963). […] […] The percentage of mortality was noted after 24 hours.
Table III hereunder expresses the percentage of potentiation of the toxicity due to yohimbine in comparison with the controls.
The percentage in question was determined 24 hours after the administration of yohimbine.

spontaneous motricity = experiment: Spontaneous motricity in the mouse; assay type: in vivo; conditions: 50 mg/kg intragastric, mouse
Description: Tests were also performed with a view to determining whether the compounds of the invention modify spontaneous motricity.

[5] = test system: reserpine-induced hypothermia; experiment: Reserpine-induced hypothermia in the rat; assay type: in vivo, male rats CF1; conditions: reserpine 5 mg/kg i.p., mean to 6th hour vs controls
Description: as §2
An intraperitoneal dose of 5 mg/kg of reserpine was administered to batches of 5 male rats CF1 weighing an average of 300 g. Thirty minutes later, the rectal temperature was determined and then a dose of the compound to be tested was given by oral route, except to the control animals. The rectal temperature of all the animals including the controls was taken every hour up to the 6th hour.
The difference between these two averages enabled an estimation to be made regarding the antagonistic effect of the compounds of the invention on the hypothermia induced by reserpine.

[6] = test system: peripheral noradrenergic processes; conditions: intravenous route; cited from earlier work
[7] = test system: cholinergic effects provoked by tremorine; experiment: Cholinolytic properties: action with respect to tremorine; assay type: in vivo, male mice of the OF1 strain; conditions: 20 mg/kg oral; tremorine 10 mg/kg; difference vs controls
Description: When injected into mice, tremorine and its metabolite, oxotremorine, produce central cholinergic effects, i.e. normal and provoked tremor as well as peripheral cholinergic effects i.e. weeping, sweating diarrhoea and salivation.
Male mice of the OF1 strain weighing 22 g, were divided into batches of 10. Each batch with the exception of the control animals, received, by oral route, a dose of the compound to be tested.
Thirty minutes later, 10 mg/kg of tremorine were administered to all the batches and thirty minutes after the injection of tremorine note was taken of the cholinergic effects on each animal in accordance with the following scale: […]

[8] = test system: aggressivity of isolated mice; experiment: Aggressivity of isolated mice; assay type: in vivo, male mouse
Description: If a male mouse is kept alone in a cage for 3 weeks to 1 month, it will spontanesouly attack any other animal of the same species which is placed in the same cage. If the other animal has also been isolated under the same conditions a series of fights takes place.
Mice were isolated for the period of time required to render them spontaneously aggressive. Couples were then put together and note was taken of the number of fights which took place over a period of 3 minutes. Each batch was composed of four pairs of mice.
The animals of each batch were then treated by intragastric route with the compound to be studied which was administered in such a way that each batch received a higher dose than the preceding batch. […]
The results were expressed in the percentage of decrease in the number of fights between the animals after treatment in comparison with the percentage obtained before treatment which represents the percentage of inhibition of aggressivity.

[9] = Rattus norvegicus, ip, 0.5 h, 30 minutes after administration
[10] = 10 mg/kg oral, amphetamine 10 mg/kg i.p., every 30 min for 150 min
[11] = 20 mg/kg, same conditions (amphetamine 10 mg/kg i.p.)

Structure (SMILES)	Average decrease of Ptosis (reserpine-induced ptosis; 10 mg/kg oral)	Average increase of the stereotypies [3, 10]	mortality at 50 mg/kg (toxicity of yohimbine)	inhibition in vivo at 25 mg/kg [2, 9]	Average inhibition of hypothermia (positive °C) ([5]; 10 mg/kg oral)	other results
CC(Oc1cccc2ccoc12)C(N)=NO (stereo not shown) [Compound 2, 2-(7-Benzofuryloxy)-propionamidoxime]	2.4	9	50%			damage to the neuromuscular functions (neuromuscular functions): did not cause any damage to the neuromuscular functions up to 40 mg/kg; LD50 at 48 h ([1]; ip, intraperitoneal): 62.5 mg/kg; LD50 at 48 h ([1]; oral): 440 mg/kg; inhibition in vivo at 20 mg/kg [2, 9]: 50%; Average increase of the stereotypies ([3]; 0.05 mg/kg intragastric, 150 minutes): 9; LD50 at 48 h ([4]; ip, intraperitoneal): 68 mg/kg; LD50 at 48 h ([4]; oral): 170 mg/kg; influence on spontaneous motricity (spontaneous motricity): no influence on the spontaneous motricity; Average inhibition of hypothermia (positive °C) ([5]; 100 mg/kg oral): 0.8 °C
CC(Oc1cccc2occc12)C(N)=NO (stereo not shown) [Compound 3, 2-(4-Benzofuryloxy)-propionamidoxime]	2.1	8.6	40%			inhibition in vivo at 20 mg/kg [2, 9]: 89%; LD50 at 48 h ([4]; ip, intraperitoneal): 68 mg/kg; influence on spontaneous motricity (spontaneous motricity): no influence on the spontaneous motricity; Average inhibition of hypothermia (positive °C) ([5]; 20 mg/kg oral): 1 °C
Cc1oc2cc(OC(C)(C)C(N)=NO)ccc2c1C [Compound 4, 2-(2,3-Dimethyl-6-benzofuryloxy)-2-methyl-propionamidoxime]	2.1	0.8	30%	25%	0.6 °C	
NC(COc1ccc2occc2c1)=NO [Compound 5, 2-(5-Benzofuryloxy)-acetamidoxime]	1.9		10%	60%	0.5 °C	
NC(CCOc1cccc2ccccc12)=NO [Compound 6, 3-(1-Naphthyloxy)-propionamidoxime]	1.5		30%	30%		
NC(CCOc1cccc2ccoc12)=NO [Compound 8, 3-(7-Benzofuryloxy)-propionamidoxime]	1.3	5.6	30%	70%	0.4 °C	influence on spontaneous motricity (spontaneous motricity): no influence on the spontaneous motricity
CC(Oc1cccc2c1OCC2)C(N)=NO (stereo not shown) [Compound 9, 2-(2,3-Dihydro-7-benzofuryloxy)-propionamidoxime]	1.3	6.2	10%		0.5 °C	influence on spontaneous motricity (spontaneous motricity): no influence on the spontaneous motricity
CCC(Oc1cccc2c1OCCO2)C(N)=NO (stereo not shown) [Compound 14, 2-[(1,4-Benzodioxanyl)-5-oxy]-butyramidoxime]	0.6	4.2		80%	0.4 °C	
NC(CCOc1ccc2ccccc2c1)=NO [Compound 18, 3-(2-Naphthyloxy)-propionamidoxime]	0.4		10%	100%		antiaggressive properties [2]: powerful antiaggressive properties
NC(COc1cccc2sccc12)=NO [Compound 26, 2-(4-Benzothienyloxy)-acetamidoxime]				27%		Average decrease of Ptosis (reserpine-induced ptosis; 20 mg/kg oral): 1.4; Mean increase of the stereotypies ([3]; 20 mg/kg oral, 5 mg/kg of amphetamine): 6.8; Potentiation of the toxicity of yohimbine (toxicity of yohimbine; 20 mg/kg oral, 24 hours): 50%
CC(C)(Oc1cccc2ccoc12)C(N)=NO [Compound 30, 2-(7-Benzofuryloxy)-2-methyl-propionamidoxime]						Average decrease of Ptosis (reserpine-induced ptosis; 100 mg/kg oral): 2.3; inhibition in vivo at 20 mg/kg [2, 9]: 75%; Average increase of the stereotypies [3, 11]: 6.5; Average inhibition of hypothermia (positive °C) ([5]; 100 mg/kg oral): 1 °C
CCC(Oc1cccc2ccccc12)C(N)=NO (stereo not shown) [Compound 34]			10%		1.1 °C	inhibition in vivo at 1 mg/kg ([2]; Rattus norvegicus, ip, 0.5 h, 1 mg/kg i.p., 30 minutes after administration): 100%; antiaggressive properties [2]: powerful antiaggressive properties
CCc1oc2ccccc2c1OC(C)(C)C(N)=NO [Compound 46, 2-(2-Ethyl-3-benzofuryloxy)-2-methyl-propionamidoxime]		6.6	10%	100%		
CN(C)CCCN1c2ccccc2CCc2ccccc21 [imipramine, 5-(3-dimethylaminopropyl)-10,11-dihydro-5H-dibenz [b,f] azepine, reference compound]			50%		0.4 °C	dose potentiating the peripheral effects of exogenous norepinephrine [6]: ≥ 1 mg/kg; Average decrease of Ptosis (reserpine-induced ptosis; 20 mg/kg oral): 1.6; Central response tremor: Normal [7]: -4; Central response tremor: Provoked [7]: -0.4; Peripheral cholinergic response: Salivat. [7]: 0; Peripheral cholinergic response: Sweating [7]: -2; Peripheral cholinergic response: Weeping [7]: -0.8; inhibition in vivo at 20 mg/kg [2, 9]: 45%; Average increase of the stereotypies ([3]; 5 mg/kg, same conditions (intragastric), 150 minutes): 4.4; Average increase of the stereotypies [3, 11]: 6; inhibition of aggressivity ([8]; 20 mg/kg): 78%; dose of imipramine giving the same activity as Compound 1 ([8]; relative to 0.42 mg/kg of Compound 1, intragastric, 90 minutes): twenty-times greater
